Source: patent publication US20260007613A1, “LONG-ACTING LOW-TOXICITY NOVEL CATIONIC LIPID COMPOUNDS AND COMPOSITION THEREOF” (BEIJING YOUCAREKECHUANG PHARMACEUTICAL TECHNOLOGY CO., LTD., priority 2023, published 2026)

Columns and labels:
female BALB/C mice = assay: Live imaging in mice: protein expression of Fluc-mRNA delivered by LNP formulations; type: in vivo
Method: In addition, the protein expression and duration of mRNA in mice delivered by the cationic lipid delivery carriers designed were also verified.
The LNP formulation containing […] Fluc-mRNA was injected intramuscularly into female BALB/C mice aged 4 to 6 weeks old and weighed 17 to 19 g, and the mice were intraperitoneally injected with fluorescent imaging substrate at specific time points after administration (6 h, 24 h, 48 h and 7 d), where the mice were free to move for 5 minutes, and then the average radiation intensity (corresponding to fluorescence expression intensity) of the protein expression of the mRNA carried by the LNP in the mice was detected by the IVIS Spectrum small animal live imaging device.

293T cells [1] = assay: Fluorescent detection of Fluc-mRNA (cell transfection efficiency of LNP formulations); type: cell-based
Method: (§1) Cell recovery and passage: 293T cells were recovered, cultured in a culture dish, and passaged to the required number of cells.
(§2) Seeding plate: The cells in the culture dish were digested and counted. Cells were spread in a 96-well plate at 10,000 cells per well and in a 12-well plate at 150,000 cells per well. Cells were cultured overnight until the cells adhered to the wall.
(§3) Cell recovery and passage: the method was the same as in Example 3.
(§4) Seeding plate: the method was the same as in Example 3.
An LNP formulation containing […] of Fluc-mRNA (the carrier components of the LNP formulation were cationic lipid, neutral lipid, structured lipid and polymer-conjugated lipid with a molar ratio of 49:10:39.5:1.5, wherein the cationic lipid was listed in Table 1) was added to the cell culture medium of a 96-well plate, and further incubated for 24 hours. The corresponding reagent was added according to the instructions of the […] Luciferase Assay Kit, and the fluorescence expression intensity of each well was detected by an IVIS fluorescence detection system. This test verified the transfection efficiencies of LNP formulations in cells, see Tables 4-7 for specific test results.

[2] = Particle size and polydispersity index (PDI) of lipid nanoparticles by dynamic light scattering; type: physicochemical; settings: LNP formulation prepared from the cationic lipid, 25° C.
Method: The particle size and polydispersity index (PDI) were determined by dynamic light scattering using Malvern laser particle size analyzer.
10 μL of the liposome solution was weighed, diluted to 1 mL with RNase-free deionized water, and added to the sample pool. Each sample was measured in triplicate. The measurement conditions were: […] scattering angle, and 25° C.

293T cells [3] = assay: Cell survival rate determination (CCK-8); type: cell-based; settings: LNP formulation of Fluc-mRNA, 24 hours, CCK-8
Method: as §1, §2, §3, §4
An LNP formulation containing […] of Fluc-mRNA (the carrier components of the LNP formulation were cationic lipid, neutral lipid, structured lipid and polymer-conjugated lipid with a molar ratio of 49:10:39.5:1.5, wherein the cationic lipid was listed in Table 1) and the formulation of Lipofectamine 3000 were added to the cell culture medium of a 96-well plate, and further cultivated for 24 hours. 10 μL of CCK-8 solution was then added to each well, and the culture plate was incubated in an incubator for 1 hour. The absorbance at 450 nm was measured by a microplate reader.
Cell survival rate can represent the toxicity of cationic lipids to cells. The higher the cell survival rate, the lower the toxicity to cells.

PDI (%) [2]: 27.6%
Particle size (nm) [2]: 232 nm
Structure (SMILES): CCCCCCCCCCOC(=O)CCCN(CCCCCC(=O)OCCC(CCCCCC)CCCCCC)C[C@H](O)CN(CC)CCO [YK-309, (S)-3-hexylnonyl-6-(4-(decyloxy)-4-oxobutyl)(2-hydroxy-3-(((2-hydroxyethyl)(ethyl)amino)propyl)amino)hexanoate]
average radiation intensity (female BALB/C mice; 6 h after intramuscular injection): 65680
average radiation intensity (female BALB/C mice; 24 h after intramuscular injection): 16820
average radiation intensity (female BALB/C mice; 48 h after intramuscular injection): 6551
average radiation intensity (female BALB/C mice; 7 d after intramuscular injection): 1256
Relative light unit (RLU) (293T cells [1]; LNP formulation of Fluc-mRNA, 96-well plate, 24 hours): 125370 RLU
Multiples (YK-305) (293T cells [1]; RLU of YK-305 / RLU of the lipid of the line): 218.62
Multiples (YK-310) (293T cells [1]; RLU of YK-310 / RLU of the lipid of the line): 205.77
Multiples (YK-312) (293T cells [1]; RLU of YK-312 / RLU of the lipid of the line): 160.71
Ratio relative to SM-102 (293T cells [1]; RLU of the lipid / RLU of SM-102, times that of SM-102): 0.08
Cell survival rate (%) (293T cells [3]): 31.61%
